One may read the Ki as the equilibrium dissociation constant of an inhibitor or competing ligand from its target. Higher therefore signals weaker binding.

The target of assay [1] is T1, Estrogen receptor (Homo sapiens) (UniProt P03372).
T1 sequence (whole entry): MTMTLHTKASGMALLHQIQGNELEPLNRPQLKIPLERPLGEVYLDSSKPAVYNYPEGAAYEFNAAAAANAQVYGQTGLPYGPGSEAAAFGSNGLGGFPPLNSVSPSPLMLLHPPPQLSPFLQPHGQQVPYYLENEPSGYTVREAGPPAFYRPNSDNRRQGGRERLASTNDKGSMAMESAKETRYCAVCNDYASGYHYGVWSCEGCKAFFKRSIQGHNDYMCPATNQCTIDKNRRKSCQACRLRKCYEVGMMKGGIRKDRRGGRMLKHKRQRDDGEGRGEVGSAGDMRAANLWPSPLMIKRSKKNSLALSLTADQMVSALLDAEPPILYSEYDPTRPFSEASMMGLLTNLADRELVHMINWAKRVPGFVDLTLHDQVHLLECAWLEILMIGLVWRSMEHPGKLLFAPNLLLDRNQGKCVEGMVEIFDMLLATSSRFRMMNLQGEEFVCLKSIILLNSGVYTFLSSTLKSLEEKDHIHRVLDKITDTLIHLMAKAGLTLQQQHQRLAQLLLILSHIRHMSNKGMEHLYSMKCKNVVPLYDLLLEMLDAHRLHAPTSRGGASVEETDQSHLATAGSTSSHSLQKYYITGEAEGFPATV
Description: Mean fluorescence intensity corrected to basal for GW-5638 selective peptide binding to human estrogen receptor alpha

Assay [2] addresses T2, Estrogen receptor (Homo sapiens, UniProt P03372).
T2 sequence (P03372 whole entry): T1 sequence (whole entry)
Description: Binding affinity for human estrogen receptor alpha

Assay [3] deals with T3, Estrogen receptor beta (Homo sapiens, UniProt Q92731).
T3 sequence (Q92731 whole entry): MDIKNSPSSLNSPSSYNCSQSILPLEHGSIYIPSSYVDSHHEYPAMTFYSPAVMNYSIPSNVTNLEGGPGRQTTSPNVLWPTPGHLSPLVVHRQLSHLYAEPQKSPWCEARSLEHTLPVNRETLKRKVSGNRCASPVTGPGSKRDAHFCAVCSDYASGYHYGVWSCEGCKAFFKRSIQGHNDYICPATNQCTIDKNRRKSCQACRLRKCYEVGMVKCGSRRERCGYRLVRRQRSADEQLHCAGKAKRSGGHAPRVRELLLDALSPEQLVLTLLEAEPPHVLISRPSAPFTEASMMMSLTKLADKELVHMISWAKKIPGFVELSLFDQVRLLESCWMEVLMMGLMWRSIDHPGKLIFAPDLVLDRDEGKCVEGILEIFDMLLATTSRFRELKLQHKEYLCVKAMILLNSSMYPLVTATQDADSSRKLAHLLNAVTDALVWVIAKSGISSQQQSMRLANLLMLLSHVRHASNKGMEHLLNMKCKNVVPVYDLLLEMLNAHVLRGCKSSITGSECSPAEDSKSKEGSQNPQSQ
For assay [4], the target named is Estrogen receptor (Homo sapiens, UniProt Q92731+P03372). As to conditions: ishikawa.
The target in assay [5] is T3, Estrogen receptor beta. In words: Binding affinity for human estrogen receptor beta.

In turn, `CCc1nc2cc(O)ccc2c(Oc2ccc(/C=C/C(=O)N(C)C)cc2)c1-c1ccccc1` returned an MFI in assay [1] of 350. Moreover, the Ki on Estrogen receptor [2] was 10 nM; at Estrogen receptor beta [3] it was 20 nM. Besides, the “Log IC50” value on Estrogen receptor [4] was -8.4.

`CCc1nc2cc(O)ccc2c(Oc2ccc(/C=C/C(N)=O)cc2)c1-c1ccccc1` had an MFI in assay [1] of 540. The Ki at Estrogen receptor [2] was 15.8 nM; on Estrogen receptor beta [3] it was 25.1 nM. Besides, the “Log IC50” value at Estrogen receptor [4] is -7.1.

Consider `O=C(O)/C=C/c1ccc(Oc2c(-c3ccccc3)c(-c3ccccc3)nc3cc(O)ccc23)cc1`, for which the inhibition constant Ki at Estrogen receptor [2] is 3160 nM; on Estrogen receptor beta [3], 631 nM. Moreover, the “Log IC50” value at Estrogen receptor [4] is listed as -5.6.

Compound `CCc1nc2cc(O)ccc2c(Oc2ccc(/C=C/C(=O)NC(C)C)cc2)c1-c1ccccc1` came in with an MFI in assay [1] of 710. Moreover, the results for the Ki at Estrogen receptor [2] and on Estrogen receptor beta [3] were 10 nM and 15.8 nM, respectively. The “Log IC50” value at Estrogen receptor [4] was -7.7.

In the case of `CCc1nc2cc(O)ccc2c(Oc2ccc(/C=C/C(=O)O)cc2)c1-c1cccc(C(F)(F)F)c1`, in assay [1], the MFI stood at 1590. Besides, the Ki was 100 nM at Estrogen receptor [2] and 251 nM at Estrogen receptor beta [3]. Also, at Estrogen receptor [4], the “Log IC50” value is recorded as -8.1.

Take `CC/C(=C(\c1ccc(O)cc1)c1ccc(/C=C/C(=O)O)cc1)c1ccccc1`: in assay [1], the MFI came to 1320.

The compound `CCc1nc2cc(O)ccc2c(Oc2ccc(/C=C/C(=O)N3CCCCC3)cc2)c1-c1ccccc1` gave an MFI in assay [1] of 390. Further, the Ki at Estrogen receptor [2] and on Estrogen receptor beta [3] was 25.1 nM each time. In addition, the “Log IC50” value at Estrogen receptor [4] was -8.4.

`CCc1nc2cc(O)ccc2c(Oc2ccc(/C=C/C(=O)O)cc2)c1-c1ccccc1` returned an MFI in assay [1] of 1380.

Turning to `CCc1nc2cc(O)ccc2c(Oc2ccc(OCCN(C)C)cc2)c1-c1ccccc1`, the MFI in assay [1] worked out at 0. The Ki was 7.94 nM on Estrogen receptor [2] and 10 nM on Estrogen receptor beta [3]. Moreover, the “Log IC50” value on Estrogen receptor [4] was -8.5.

With `CCc1nc2cc(O)ccc2c(Oc2cccc(/C=C/C(=O)O)c2)c1-c1ccccc1`, the Ki on Estrogen receptor beta [5] and at Estrogen receptor [2] was 1580 nM each time.

Source of the values: ChEMBL document CHEMBL1145207, “Discovery of novel quinoline-based estrogen receptor ligands using peptide interaction profiling” (J Med Chem, 2005).
